Assay results reported in patent US20020107219A1, “Adenoviral vector containing cyclooxygenase-2 promoter and uses thereof” (priority 2000, published 2002).

Type: in vivo, C57BL/6 mice
Excerpt: To investigate the toxicity induced by the HSV-tk/GCV system, each group of ten C57BL/6 mice received a tail vein injection of AdCMV TK (10^9 pfu), Adcox2LTK (10^9 pfu) or phosphate-buffered saline on day 0. […] The mice were sacrificed on day 6 and the blood samples were collected to analyze total bilirubin, alanine aminotransferase (ALT), aspartate aminotransferase (AST) an d lactate dehydrogenase (LDH) at a veterinary laboratory (ANTECH Diagnostics, Farmingdale, N.Y.). For histopathological analysis, the major organs were fixed with 10% buffered formaldehyde, paraffin-embedded and cut in to 4 μm section, followed by deparaffinization and staining with hematoxylin and eosin.

Compound: Nc1nc(O)c2ncn(COC(CO)CO)c2n1 [GCV, ganciclovir]
- serum samples (total bilirubin, ALT, AST, LDH) (only GCV, without virus): did not show abnormality
- liver histology (H and E) (without virus administration): appeared almost normal
